Data from PMC8728392, “Synthesis, Anticancer Assessment, and Molecular Docking of Novel Chalcone-Thienopyrimidine Derivatives in HepG2 and MCF-7 Cell Lines” (Oxidative Medicine and Cellular Longevity, 2021).

How the values were obtained:
[1] = system: MCF-7 cell line; experiment: Annexin V-FITC/PI apoptotic assay; type: cell-based, human
From the text: Annexin V-fluorescein isothiocyanate (FITC) and counterstaining with propidium iodide (PI) using the Annexin V-FITC/PI apoptosis detection kit (BD Biosciences, San Diego, CA) were employed to distinguish early and late apoptotic cells according to the manufacturer's directions. Annexin V conjugated with fluorescein isothiocyanate was used to quantify the loss of phosphatidylserine asymmetry in cell membranes involved in apoptosis, and propidium iodide can distinguish between early apoptosis, late apoptotic, and necrotic cells. Analyses were achieved by using a FACSCalibur flow cytometer (BD Biosciences, San Jose, CA).
Cells were gently washed twice with PBS accompanied by tryptic digestion (0.25% trypsin/EDTA) and washed yet again with PBS. All the cells including the floating and adherent ones were harvested, pooled and stained with […] in 1× binding buffer for 15 min at room temperature in the dark. Analyses were achieved by FACS Calibur flow cytometer (BD Biosciences, San Jose, CA).

[2] = system: MDA in MCF-7 cells; experiment: Lipid peroxidation (MDA); type: cell-based, human; conditions: IC50, in comparison to untreated cells
Description: MDA is described as a lipid peroxidation product. It reacts with thiobarbituric acid to produce a red substance that is absorbed at 535 nm.
MDA has been described as the product of lipid peroxidation that reacts with thiobarbituric acid to produce a red substance that is absorbed at 535 nm (Kei et al., 1978). HepG2 and MCF7 cells treated with synthetic thienopyrimidine were mixed with 2 ml of solution of trichloroacetic acid (TCA), thiobarbituric acid (TBA) and hydrochloric acid (HCl) and mixed thoroughly, and then heated in a boiling water bath. during 15 minutes. After cooling, the precipitate was removed by centrifugation at 3000 rpm for 10 minutes. Relative to the reagent blank, which measures the absorbance at 535 nm, the blank reagent contains all reagents except cells. The MDA concentration is expressed as nmol/ml using a calibration curve.

[3] = system: human liver cancer cell line (HepG2); experiment: MTT assay, cytotoxicity; type: cell-based; conditions: for survival percentage (mean ± SEM): HepG2, 24 hours
Description: (§1) Cancer cell lines were manipulated according to the method described by Sigounas et al.. In this method, the cell lines were grown as adherent monolayers in T75 flasks with Dulbecco's modified Eagle's medium (DMEM) supplemented with 10% Fetal Bovine Serum (FBS), 2 mM L-glutamine, and 1% streptomycin/penicillin. The cells were left to grow in a CO2 incubator at 37°C, 5% CO2, and 95% humidity until their confluence.
(§2) The 3-[4,5-dimethylthiazol-2-yl]-2,5-diphenyltetrazolium bromide (MTT) colorimetric assay was used to examine the sensitivity of cells to tested compounds (as anticancer drugs), as previously described. This assay depends on the production of a purple formazan derivative from the yellow tetrazolium bromide (MTT) by mitochondrial succinate dehydrogenase in viable cells. The percentage of cell survival was calculated as follows: (1) Percentage of survival=O.D.treated cells/O.D.control cells×100.
(§3) For preliminary screening of the cytotoxicity of synthesized compounds 3a-g, cells exposed to DMSO were used as a control. Plotting the relationship between the survival score and the compound concentration and calculating the IC50 (the concentration required to inhibit cell viability by 50%) were performed for each test compound according to Li et al. in comparison with the reference standard anticancer agent, 5-FU.
(§4) The 3-[4,5-dimethylthiazol-2-yl]-2,5-diphenyltetrazolium bromide (MTT) colorimetric assay was used to examine the sensitivity of cells to tested compounds (as anticancer drugs), as previously described by Hussein et al. (2017). This assay depend on the production of a purple formazan derivative from the yellow tetrazolium bromide (MTT) by mitochondrial succinate dehydrogenase in viable cells. Briefly, after harvesting the cells with 0.25% trypsin, the cell lines were suspended in DMEM. Cells were seeded in 96-well microtiter plates at a concentration of 5×10^4 cell/well in a fresh medium and left to attach to the plates for 24 h before treatment with the tested compounds 3a-g. Test compounds were dissolved in dimethyl sulfoxide (DMSO). After 24 hours, cells were incubated with the appropriate concentration ranges of compounds, the wells were diluted to […] with fresh medium and incubation was continued for 24 hours. Three wells were used for each concentration. After 24 hours of treatment, 20 μl of MTT solution (5mg/ml) was added and subsequently the plates were further incubated for 4 hours to allow the viable cells to biotransform the yellow-colored MTT into purple formazan crystals. The optical density (O.D.) of each well was measured spectrophotometrically at […] with an enzyme-linked immunosorbent assay (ELISA) microplate reader (BioTek, EL-800, USA). The percentage of cell survival was calculated as follows: […]

[4] = system: human breast cancer cell line (MCF-7); experiment: MTT assay, cytotoxicity; type: cell-based; conditions: for survival percentage (mean ± SEM): MCF-7, 24 hours
Description: as §1, §2, §3, §4

In the case of `CCOC(=O)Cn1c(SCC(=O)Nc2ccc(C(=O)/C=C\c3cc(OC)c(OC)c(OC)c3)cc2)nc2sc3c(c2c1=O)CCN(C(=O)OCC)C3` [Compound 3b, Ethyl (Z)-3-(2-Ethoxy-2-oxoethyl)-4-oxo-2-((2-oxo-2-((4-(3-(3,4,5 trimethoxyphenyl)acryloyl)phenyl)amino)ethyl)thio)-3,5,6,8 tetra-hydropyrido[4′,3′:4,5]thieno[2,3-d]pyrimidine-7(4H)-carboxylate], the melting point is reported as 172 to 173 °C, the “total, early, and late apoptosis as well as necrosis relative to the control cells” value [1] is reported as “significant increase” and the “MDA” value [2] is reported as “significant elevation”. The “survival percentage (mean ± SEM)” value ([3]; 4.8828125 μg/ml) was 110.1 ± 0.046%, the “survival percentage (mean ± SEM)” value ([3]; 9.765625 μg/ml) was 67.9 ± 0.048% and the “survival percentage (mean ± SEM)” value ([3]; 19.53125 μg/ml) was 23.2 ± 0.012%. The “survival percentage (mean ± SEM)” value ([3]; 39.0625 μg/ml) was 18.4 ± 0.006%, the “survival percentage (mean ± SEM)” value ([3]; 78.125 μg/ml) was 17.3 ± 0.007% and the “survival percentage (mean ± SEM)” value ([3]; 156.25 μg/ml) was 16.2 ± 0.004%. The “survival percentage (mean ± SEM)” value ([3]; 312.5 μg/ml) was 13.3 ± 0.004%, the “survival percentage (mean ± SEM)” value ([3]; 625 μg/ml) was 12.9 ± 0.006% and the “survival percentage (mean ± SEM)” value ([3]; 1250 μg/ml) was 12.7 ± 0.002%. For the same compound, the “survival percentage (mean ± SEM)” value ([3]; 2500 μg/ml) was 12.2 ± 0.001%, the “survival percentage (mean ± SEM)” value ([3]; 5000 μg/ml) was 12.1 ± 0.001% and the “survival percentage (mean ± SEM)” value ([3]; 10000 μg/ml) was 12.1 ± 0.002%. For the same compound, the “times more activity compared to compounds 3a and 3c” value ([3]; HepG2 cell line) was ~ 18 times, the “survival percentage (mean ± SEM)” value ([4]; 4.8828125 μg/ml) was 104.9 ± 0.016% and the “survival percentage (mean ± SEM)” value ([4]; 9.765625 μg/ml) was 102.6 ± 0.015%. The “survival percentage (mean ± SEM)” value ([4]; 19.53125 μg/ml) was 83.2 ± 0.022%, the “survival percentage (mean ± SEM)” value ([4]; 39.0625 μg/ml) was 31.8 ± 0.009% and the “survival percentage (mean ± SEM)” value ([4]; 78.125 μg/ml) was 27.7 ± 0.026%. For the same compound, the “survival percentage (mean ± SEM)” value ([4]; 156.25 μg/ml) was 21.3 ± 0.013%, the “survival percentage (mean ± SEM)” value ([4]; 312.5 μg/ml) was 21.0 ± 0.001% and the “survival percentage (mean ± SEM)” value ([4]; 625 μg/ml) was 20.3 ± 0.002%. The “survival percentage (mean ± SEM)” value ([4]; 1250 μg/ml) was 20.3 ± 0.001%, the “survival percentage (mean ± SEM)” value ([4]; 2500 μg/ml) was 20.1 ± 0.001% and the “survival percentage (mean ± SEM)” value ([4]; 5000 μg/ml) was 19.7 ± 0.002%. The “survival percentage (mean ± SEM)” value ([4]; 10000 μg/ml) was 17.3 ± 0.001%, the “fold more effective anticancer activity than 5-FU” value ([4]; MCF-7 cell line) was 846.5 fold and the “times more activity compared to compound 3g” value ([4]; MCF-7 cell line) was ~ 2.5 times.

With `CCOC(=O)Cn1c(SCC(=O)Nc2ccc(C(=O)/C=C\c3cccc([N+](=O)[O-])c3)cc2)nc2sc3c(c2c1=O)CC(C)(C)NC3(C)C` [Compound 3g, Ethyl (Z)-2-(6,6,8,8-Tetramethyl-2-((2-((4-(3-(3-nitrophenyl)acryloyl)-phenyl)amino)-2-oxoethyl)thio)-4-oxo-5,6,7,8-tetrahydropyrido[4′,3′:4,5]thieno[2,3-d]pyrimidin-3(4H)-yl)acetate] the melting point was 194 to 195 °C, the “MDA” value [2] was “significant elevation” and the “survival percentage (mean ± SEM)” value ([3]; 4.8828125 μg/ml) was 131.3 ± 0.033%. For the same compound, the “survival percentage (mean ± SEM)” value ([3]; 9.765625 μg/ml) was 115.9 ± 0.098%, the “survival percentage (mean ± SEM)” value ([3]; 19.53125 μg/ml) was 97.8 ± 0.053% and the “survival percentage (mean ± SEM)” value ([3]; 39.0625 μg/ml) was 64.1 ± 0.038%. For the same compound, the “survival percentage (mean ± SEM)” value ([3]; 78.125 μg/ml) was 17.5 ± 0.002%, the “survival percentage (mean ± SEM)” value ([3]; 156.25 μg/ml) was 14.5 ± 0.003% and the “survival percentage (mean ± SEM)” value ([3]; 312.5 μg/ml) was 14.1 ± 0.002%. For the same compound, the “survival percentage (mean ± SEM)” value ([3]; 625 μg/ml) was 13.0 ± 0.003%, the “survival percentage (mean ± SEM)” value ([3]; 1250 μg/ml) was 12.5 ± 0.001% and the “survival percentage (mean ± SEM)” value ([3]; 2500 μg/ml) was 12.7 ± 0.002%. For the same compound, the “survival percentage (mean ± SEM)” value ([3]; 5000 μg/ml) was 12.5 ± 0.001%, the “survival percentage (mean ± SEM)” value ([3]; 10000 μg/ml) was 12.3 ± 0.002% and the “fold more potent activity than 5-FU” value ([3]; HepG2 cell line) was 420.94 fold. The “survival percentage (mean ± SEM)” value ([4]; 4.8828125 μg/ml) was 105.3 ± 0.032%, the “survival percentage (mean ± SEM)” value ([4]; 9.765625 μg/ml) was 98.2 ± 0.023% and the “survival percentage (mean ± SEM)” value ([4]; 19.53125 μg/ml) was 96.4 ± 0.003%. For the same compound, the “survival percentage (mean ± SEM)” value ([4]; 39.0625 μg/ml) was 81.0 ± 0.009%, the “survival percentage (mean ± SEM)” value ([4]; 78.125 μg/ml) was 28.0 ± 0.015% and the “survival percentage (mean ± SEM)” value ([4]; 156.25 μg/ml) was 20.1 ± 0.003%. For the same compound, the “survival percentage (mean ± SEM)” value ([4]; 312.5 μg/ml) was 19.4 ± 0.004%, the “survival percentage (mean ± SEM)” value ([4]; 625 μg/ml) was 19.9 ± 0.001% and the “survival percentage (mean ± SEM)” value ([4]; 1250 μg/ml) was 19.9 ± 0.002%. For the same compound, the “survival percentage (mean ± SEM)” value ([4]; 2500 μg/ml) was 19.0 ± 0.001%, the “survival percentage (mean ± SEM)” value ([4]; 5000 μg/ml) was 18.9 ± 0.001% and the “survival percentage (mean ± SEM)” value ([4]; 10000 μg/ml) was 15.3 ± 0.000%. For the same compound, the “fold more effective anticancer activity than 5-FU” value ([4]; MCF-7 cell line) was 350.4 fold.
